Test results as given in patent US20060223846A1, “Aza-bridged-bicyclic amino acid derivatives as alpha4 integrin antagonists” (priority 2005, published 2006).

What was measured:
α4β1 = α4β1 (Homo sapiens, UniProt P05556+P13612); experiment: Ramos Cell Adhesion Assay (α4β1 Mediated Adhesion/VCAM-1); format: cell-based; set-up: Ramos cells, (50 μL at 2×10^6/mL) labeled with 5 μM Calcein AM; endogenous in cells; host or cells: Ramos cells; settings: Ramos cells on recombinant hVCAM-1; read-out: α4β1 IC50
Procedure: (§1) Ramos Cell Adhesion Assay α4β1 Mediated Adhesion/VCAM-1) Immulon 9.6 well plates (Dynex) were coated with 100 μL recombinant hVCAM-1 at 4.0 μg/mL in 0.05 M NaCO3 buffer pH 9.0 overnight at 4° C. (R&D Systems). Plates were washed 3 times in PBS with 1% BSA and blocked for 1 h @ room temperature in this buffer. PBS was removed and compounds to be tested (50 μL) were added at 2× concentration. Ramos cells, (50 μL at 2×10^6/mL) labeled with 5 μM Calcein AM (Molecular Probes) for 1 h at 37° C., were added to each well and allowed to adhere for 1 h at room temperature. Plates were washed 3× in PBS+1% BSA and cells were lysed for 15 minutes in 100 μL of 1 M Tris pH 8.0 with 1% SDS. The plate was read at 485 nm excitation and 530 nm emission.

human α4β7 = biological target: T1, human α4β7 (Homo sapiens, UniProt P13612+P26010); experiment: α4β7-K562 Cell Adhesion Assay (α4β7 Mediated Adhesion/VCAM-1); format: cell-based; settings: K562 cells expressing human α4β7 on recombinant hVCAM-1; read-out: α4β7 IC50
T1 construct: expressed in transfected cells
T1 sequence (P13612 34-1032): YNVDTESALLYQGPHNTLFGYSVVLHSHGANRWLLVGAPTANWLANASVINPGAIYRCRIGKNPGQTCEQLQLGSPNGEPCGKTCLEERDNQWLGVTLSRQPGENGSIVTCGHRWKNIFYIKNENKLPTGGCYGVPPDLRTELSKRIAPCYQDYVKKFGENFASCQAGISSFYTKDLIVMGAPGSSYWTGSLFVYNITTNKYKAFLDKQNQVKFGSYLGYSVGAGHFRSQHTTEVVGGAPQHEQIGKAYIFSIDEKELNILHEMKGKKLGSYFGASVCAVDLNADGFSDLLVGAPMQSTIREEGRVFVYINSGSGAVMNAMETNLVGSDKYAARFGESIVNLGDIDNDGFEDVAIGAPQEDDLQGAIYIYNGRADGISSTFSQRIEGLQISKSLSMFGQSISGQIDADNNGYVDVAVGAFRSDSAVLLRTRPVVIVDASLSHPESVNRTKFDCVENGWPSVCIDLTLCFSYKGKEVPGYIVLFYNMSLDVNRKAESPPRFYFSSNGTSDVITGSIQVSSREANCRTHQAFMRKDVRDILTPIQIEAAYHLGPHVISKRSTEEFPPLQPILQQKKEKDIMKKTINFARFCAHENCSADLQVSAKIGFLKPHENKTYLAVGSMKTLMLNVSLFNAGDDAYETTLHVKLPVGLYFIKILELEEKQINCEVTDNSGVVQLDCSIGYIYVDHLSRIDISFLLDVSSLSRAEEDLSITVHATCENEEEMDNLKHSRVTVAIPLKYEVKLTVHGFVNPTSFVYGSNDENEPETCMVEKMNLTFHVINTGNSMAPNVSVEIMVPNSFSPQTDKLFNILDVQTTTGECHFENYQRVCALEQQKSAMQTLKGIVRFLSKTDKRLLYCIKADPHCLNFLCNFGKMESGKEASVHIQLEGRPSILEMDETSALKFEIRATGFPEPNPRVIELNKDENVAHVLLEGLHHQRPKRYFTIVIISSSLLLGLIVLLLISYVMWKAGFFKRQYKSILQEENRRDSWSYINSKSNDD
T1 sequence (P26010 20-798): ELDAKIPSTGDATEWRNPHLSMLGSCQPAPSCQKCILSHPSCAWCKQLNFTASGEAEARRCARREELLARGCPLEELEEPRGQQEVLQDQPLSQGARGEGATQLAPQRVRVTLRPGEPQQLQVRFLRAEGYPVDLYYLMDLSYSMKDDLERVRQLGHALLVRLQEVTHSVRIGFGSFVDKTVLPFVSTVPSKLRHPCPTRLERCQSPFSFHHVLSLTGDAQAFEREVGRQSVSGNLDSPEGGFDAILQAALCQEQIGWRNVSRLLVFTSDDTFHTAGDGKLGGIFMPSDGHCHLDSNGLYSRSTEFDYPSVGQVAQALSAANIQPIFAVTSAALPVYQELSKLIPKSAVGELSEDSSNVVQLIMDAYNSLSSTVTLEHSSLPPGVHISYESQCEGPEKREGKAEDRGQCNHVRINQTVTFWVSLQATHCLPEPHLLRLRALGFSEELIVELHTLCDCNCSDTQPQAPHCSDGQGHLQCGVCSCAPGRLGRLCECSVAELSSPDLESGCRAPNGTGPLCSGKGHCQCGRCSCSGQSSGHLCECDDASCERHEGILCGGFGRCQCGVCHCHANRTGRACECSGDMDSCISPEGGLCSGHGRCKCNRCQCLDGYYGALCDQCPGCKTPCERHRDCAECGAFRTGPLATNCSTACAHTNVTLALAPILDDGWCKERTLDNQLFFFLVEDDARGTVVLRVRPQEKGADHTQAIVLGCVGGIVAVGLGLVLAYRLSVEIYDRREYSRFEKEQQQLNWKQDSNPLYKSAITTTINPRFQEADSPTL
Procedure: as §1, with “α4β7-K562” for “Ramos”, “(α4β7” for “α4β1”, “96” for “9.6”, “System).” for “Systems).”, “A stable cell line of K562 cells expressing human α4β7,” for “Ramos cells,”

Sequence of α4β1 (P05556 21-798, one chain of several): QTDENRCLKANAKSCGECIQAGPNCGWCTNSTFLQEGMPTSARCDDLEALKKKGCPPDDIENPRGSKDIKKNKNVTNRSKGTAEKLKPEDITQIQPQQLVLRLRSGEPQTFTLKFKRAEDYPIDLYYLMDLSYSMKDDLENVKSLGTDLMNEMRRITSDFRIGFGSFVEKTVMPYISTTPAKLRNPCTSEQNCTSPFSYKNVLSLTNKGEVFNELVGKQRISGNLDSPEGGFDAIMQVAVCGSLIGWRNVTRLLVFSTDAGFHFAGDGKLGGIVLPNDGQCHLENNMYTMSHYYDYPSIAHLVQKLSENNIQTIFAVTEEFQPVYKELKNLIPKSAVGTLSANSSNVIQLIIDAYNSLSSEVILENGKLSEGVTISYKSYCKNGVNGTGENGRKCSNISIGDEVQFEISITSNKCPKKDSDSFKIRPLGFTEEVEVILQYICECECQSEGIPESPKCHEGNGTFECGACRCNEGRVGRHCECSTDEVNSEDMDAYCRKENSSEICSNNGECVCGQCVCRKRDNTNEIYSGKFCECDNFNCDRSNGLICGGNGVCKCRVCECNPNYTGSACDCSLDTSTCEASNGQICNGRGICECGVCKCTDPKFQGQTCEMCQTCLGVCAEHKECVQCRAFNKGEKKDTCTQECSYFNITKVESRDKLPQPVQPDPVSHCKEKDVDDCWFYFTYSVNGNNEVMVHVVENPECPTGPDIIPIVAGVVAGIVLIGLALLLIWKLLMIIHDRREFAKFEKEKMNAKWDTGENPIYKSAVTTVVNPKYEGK

Structure (SMILES)	IC50 (α4β1) [nM]	IC50 (human α4β7) [nM]
O=C(Nc1ccc(CC(NC(=O)C2C3CCC(CC3)N2C(=O)CCCC2CCCCC2)C(=O)O)cc1)c1c(Cl)cncc1Cl (stereo not shown) [Cpd 37]	41	254
CC(C)CCC(=O)N1C2CCC(CC2)C1C(=O)NC(Cc1ccc(NC(=O)c2c(Cl)cncc2Cl)cc1)C(=O)O (stereo not shown) [Cpd 38]	5	15
CC(=Cc1ccccc1)C(=O)N1C2CCC(CC2)C1C(=O)NC(Cc1ccc(NC(=O)c2c(Cl)cncc2Cl)cc1)C(=O)O (stereo not shown) [Cpd 40]	77	943
O=C(Nc1ccc(CC(NC(=O)C2C3CCC(CC3)N2C(=O)CC2CCOCC2)C(=O)O)cc1)c1c(Cl)cncc1Cl (stereo not shown) [Cpd 41]	11	30
O=C(Nc1ccc(CC(NC(=O)C2C3CCC(CC3)N2C(=O)OCc2ccccc2)C(=O)O)cc1)c1c(Cl)cncc1Cl (stereo not shown) [Cpd 42]	8	24
O=C(Nc1ccc(CC(NC(=O)C2C3CCC(CC3)N2C(=O)CCN2CCCCC2)C(=O)O)cc1)c1c(Cl)cncc1Cl (stereo not shown) [Cpd 43]	5	86
O=C(Nc1ccc(CC(NC(=O)C2C3CCC(CC3)N2C(=O)Cc2ccncc2)C(=O)O)cc1)c1c(Cl)cncc1Cl (stereo not shown) [Cpd 44]	3	32
COc1ccccc1C=CC(=O)N1C2CCC(CC2)C1C(=O)NC(Cc1ccc(NC(=O)c2c(Cl)cncc2Cl)cc1)C(=O)O (stereo not shown) [Cpd 45]	3	36
O=C(Nc1ccc(CC(NC(=O)C2C3CCC(CC3)N2C(=O)C=Cc2ccc3c(c2)OCO3)C(=O)O)cc1)c1c(Cl)cncc1Cl (stereo not shown) [Cpd 46]	> 5000	476
COc1cccc(CCC(=O)N2C3CCC(CC3)C2C(=O)NC(Cc2ccc(NC(=O)c3c(Cl)cncc3Cl)cc2)C(=O)O)c1 (stereo not shown) [Cpd 49]	1	9
O=C(Nc1ccc(CC(NC(=O)C2C3CCC(CC3)N2C(=O)CCc2ccc(C(F)(F)F)cc2)C(=O)O)cc1)c1c(Cl)cncc1Cl (stereo not shown) [Cpd 50]	6	75
O=C(Nc1ccc(CC(NC(=O)C2C3CCC(CC3)N2C(=O)CCc2ccc(Cl)cc2)C(=O)O)cc1)c1c(Cl)cncc1Cl (stereo not shown) [Cpd 51]	3	24
O=C(Nc1ccc(CC(NC(=O)C2C3CCC(CC3)N2C(=O)CCc2ccccc2F)C(=O)O)cc1)c1c(Cl)cncc1Cl (stereo not shown) [Cpd 52]	3	46
O=C(Nc1ccc(CC(NC(=O)C2C3CCC(CC3)N2C(=O)CCN2CCNCC2)C(=O)O)cc1)c1c(Cl)cncc1Cl (stereo not shown) [Cpd 53]	3	141
O=C(Nc1ccc(CC(NC(=O)C2C3CCC(CC3)N2C(=O)CCc2cc(C(F)(F)F)cc(C(F)(F)F)c2)C(=O)O)cc1)c1c(Cl)cncc1Cl (stereo not shown) [Cpd 55]	72	181
CN(C)c1ccc(CC(=O)N2C3CCC(CC3)C2C(=O)NC(Cc2ccc(NC(=O)c3c(Cl)cncc3Cl)cc2)C(=O)O)cc1 (stereo not shown) [Cpd 56]	2	23
O=C(Nc1ccc(CC(NC(=O)C2C3CCC(CC3)N2C(=O)C#Cc2ccccc2)C(=O)O)cc1)c1c(Cl)cncc1Cl (stereo not shown) [Cpd 57]	9	27
Cc1ccc(CCN2C3CCC(CC3)C2C(=O)NC(Cc2ccc(NC(=O)c3c(Cl)cncc3Cl)cc2)C(=O)O)cc1 (stereo not shown) [Cpd 58]	201	16
COc1cccc(CC(=O)N2C3CCC(CC3)C2C(=O)NC(Cc2ccc(NC(=O)c3c(Cl)cncc3Cl)cc2)C(=O)O)c1 (stereo not shown) [Cpd 59]	504	255
O=C(Nc1ccc(CC(NC(=O)C2C3CCC(CC3)N2C(=O)Cc2csc3ccccc23)C(=O)O)cc1)c1c(Cl)cncc1Cl (stereo not shown) [Cpd 62]	292	565
O=C(Nc1ccc(CC(NC(=O)C2C3CCC(CC3)N2C(=O)c2ccccc2Oc2ccccc2)C(=O)O)cc1)c1c(Cl)cncc1Cl (stereo not shown) [Cpd 63]	55	66
O=C(Nc1ccc(CC(NC(=O)C2C3CCC(CC3)N2C(=O)OCc2ccccc2)C(=O)O)cc1)c1c(Cl)cncc1Cl (stereo not shown) [Cpd 64]	9	24
O=C(Nc1ccc(CC(NC(=O)C2C3CCC(CC3)N2C(=O)CCc2cccnc2)C(=O)O)cc1)c1c(Cl)cncc1Cl (stereo not shown) [Cpd 65]	3	10
